Source: patent publication US9358232B2, “Methods for treating cancer using TOR kinase inhibitor combination therapy” (Signal Pharmaceuticals, LLC, priority 2013, dated 2016)
“Also recorded” adds a separate entry of the source.

Legend:
[1] = tested on: WSU-DLCL2 xenograft; assay: DLBCL xenograft model; assay type: in vivo, SCID mice; conditions: for tumor volume reduction (TVR): Day 35, end of 3-week dosing, vs vehicle control (FIG. 1); for decrease in tumor volume (TVR): Day 34, vs vehicle, Compound 1 10 mg/kg QD, Compound A 30 mg/kg QD, alone or combined (FIGS. 2-3)
Description: Severe combined immunodeficiency (SCID) mice were implanted with human DLBCL cell line (WSU-DLCL2) into the flank. Treatment of compounds started between Day 11 and Day 14 after cell inoculation. Randomized groups of mice (n=9 to 10/group) were treated with the single agents (Compound 1, Compound A or Compound AA) or the combination of Compound 1/Compound A, Compound A/Compound AA, or Compound 1/Compound AA. Compounds were administered orally on a once daily (Compound 1 and Compound A) or twice daily […] schedule for 21 days. The positive control consisted of CHOP therapy (combination of cyclophosphamide, doxorubicin, vincristine and prednisone). Compound 1 and Compound A were formulated in CMC-Tween (carboxymethylcellulose/Tween 80/deionized water). Compound AA was suspended in DSP (dimethylsulphoxide/solutol/phosphate buffered saline).
Initial studies were conducted in order to determine the antitumor activity of Compound 1 and to identify a dose level for the combination studies. In the WSU-DLCL2 xenograft model, Compound 1 inhibited tumor growth in a dose-dependent fashion. […] In a subsequent combination study, Compound 1 was dosed at 10 mg/kg, once daily (QD). Compound A and Compound AA were dosed at 30 mg/kg (QD) and 50 mg/kg (BID), respectively.

[2] = tested on: B-cell; conditions: cited from earlier work
[3] = target: BTK (Homo sapiens, UniProt Q06187); conditions: enzymatic and cellular assays; cited from earlier work
[4] = combination study, Compound AA 50 mg/kg BID
[5] = combination study, single agents or in combination

BTK, sequence (Q06187 whole entry): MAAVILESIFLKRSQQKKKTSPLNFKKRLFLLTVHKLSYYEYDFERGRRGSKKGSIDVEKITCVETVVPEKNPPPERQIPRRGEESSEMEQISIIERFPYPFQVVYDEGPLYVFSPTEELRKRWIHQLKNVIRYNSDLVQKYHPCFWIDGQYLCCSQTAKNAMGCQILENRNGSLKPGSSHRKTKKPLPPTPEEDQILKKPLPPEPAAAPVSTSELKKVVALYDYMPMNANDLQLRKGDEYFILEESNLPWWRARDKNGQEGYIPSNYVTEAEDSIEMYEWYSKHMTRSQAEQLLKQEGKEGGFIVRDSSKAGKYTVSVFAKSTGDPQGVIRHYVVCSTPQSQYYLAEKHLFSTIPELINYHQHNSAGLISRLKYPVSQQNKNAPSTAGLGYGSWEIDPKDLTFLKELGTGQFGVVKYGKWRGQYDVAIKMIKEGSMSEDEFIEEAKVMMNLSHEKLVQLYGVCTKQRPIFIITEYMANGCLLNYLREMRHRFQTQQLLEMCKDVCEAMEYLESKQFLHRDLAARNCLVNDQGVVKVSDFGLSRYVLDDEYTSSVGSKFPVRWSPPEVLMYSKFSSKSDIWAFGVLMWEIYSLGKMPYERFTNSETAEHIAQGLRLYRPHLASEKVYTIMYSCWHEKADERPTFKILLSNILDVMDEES

| Compound | tumor volume reduction (TVR) ([1]; 1 mg/kg oral once daily) | tumor volume reduction (TVR) ([1]; 3 mg/kg oral once daily) | decrease in tumor volume (TVR) [1, 4] | body weight loss [1, 5] | body weight loss ([1]; initial dose study, 1, 3 and 10 mg/kg (FIG. 1)) | effect on B-cell proliferation and activation [2] | antitumor activity as single agent [1, 4] | inhibition of BTK [3] |
| --- | --- | --- | --- | --- | --- | --- | --- | --- |
| CO[C@H]1CC[C@H](N2C(=O)CNc3ncc(-c4ccc(C(C)(C)O)nc4)nc32)CC1 [Compound 1, 7-(6-(2-hydroxypropan-2-yl)pyridin-3-yl)-1-((1r,4r)-4-methoxycyclohexyl)-3,4-dihydropyrazino-[2,3-b]pyrazin-2(1H)-one] | ~22% | ~28% | 29% | No significant body weight loss | No significant body weight loss |  |  |  |
| Cc1nc2cccc(N)c2c(=O)n1C1CCC(=O)NC1=O (centres unmarked) [Compound A, 3-(5-Amino-2-methyl-4-oxoquinazolin-3(4H)-yl)-piperidine-2,6-dione] |  |  | 30% | No significant body weight loss |  |  |  |  |
| C=CC(=O)Nc1cccc(Nc2nc(Nc3ccc(OCCOC)cc3)ncc2F)c1 [Compound AA, N-(3-(5-fluoro-2-(4-(2-methoxyethoxy)phenylamino)pyrimidin-4-ylamino)phenyl)acrylamide] |  |  |  | No significant body weight loss |  | inhibit B-cell proliferation and activation | No significant antitumor activity; also recorded: inactive | covalent, irreversible inhibition of BTK |
